From the supplement of paper PMC10307832

How the values were obtained:
Test in all cases: relative viability (nuclei count vs DMSO), 5 days (fraction); higher = more cells survive
[1] = compound: COc1ccc(-c2ccc3c(N4CCOC[C@@H]4C)nc(N4CCOC[C@@H]4C)nc3n2)cc1CO [AZD8055] + COc1cccc2cc(-c3nc([C@H]4CC[C@H](C(=O)O)CC4)n4ncnc(N)c34)[nH]c12 [OSI-027] (partner 0.5 µM)
In short: (§1)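 Dosing by pin tool came one day after lung cancer cell lines were seeded in 1536-well plates, using either one drug or a fixed anchor-drug dose plus five library-drug doses (not always all listed) in √10 steps. After 5 days, nuclei were counted on 4× images. Relative viability is treated-well nuclei count divided by vehicle-well nuclei count, and values are medians of duplicate plates.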

[2] = compound: COc1ccc(-c2ccc3c(N4CCOC[C@@H]4C)nc(N4CCOC[C@@H]4C)nc3n2)cc1CO [AZD8055] + CS(=O)(=O)CCNCc1ccc(-c2ccc3ncnc(Nc4ccc(OCc5cccc(F)c5)c(Cl)c4)c3c2)o1 [Lapatinib] (partner 2 µM)
In short: as §1

[3] = compound: COc1ccc(-c2ccc3c(N4CCOC[C@@H]4C)nc(N4CCOC[C@@H]4C)nc3n2)cc1CO [AZD8055] + C[C@]1(O)C[C@@H](c2nc(-c3ccc4ccc(-c5ccccc5)nc4c3)c3c(N)nccn32)C1 [Linsitinib] (partner 1 µM)
In short: as §1

[4] = compound: COc1ccc(-c2ccc3c(N4CCOC[C@@H]4C)nc(N4CCOC[C@@H]4C)nc3n2)cc1CO [AZD8055] + Cc1nc(NC(=O)N2CCC[C@H]2C(N)=O)sc1-c1ccnc(C(C)(C)C(F)(F)F)c1 [Alpelisib] (partner 2 µM)
In short: as §1

Cell Line NCI-H1975 has a relative viability ([1]; first compound 0.01 µM) of 0.677, a relative viability ([1]; first compound 0.03162 µM) of 0.56 and a relative viability ([1]; first compound 0.1 µM) of 0.375. The relative viability ([1]; first compound 0.3162 µM) was 0.237, the relative viability ([1]; first compound 1 µM) was 0.235 and the relative viability ([2]; first compound 0.01 µM) was 1.04. It also gave a relative viability ([2]; first compound 0.03162 µM) of 0.601, a relative viability ([2]; first compound 0.1 µM) of 0.468 and a relative viability ([2]; first compound 0.3162 µM) of 0.273. For the same cell line, the relative viability ([2]; first compound 1 µM) was 0.251, the relative viability ([3]; first compound 0.01 µM) was 0.897 and the relative viability ([3]; first compound 0.03162 µM) was 0.581. For the same cell line, the relative viability ([3]; first compound 0.1 µM) was 0.469, the relative viability ([3]; first compound 0.3162 µM) was 0.265 and the relative viability ([3]; first compound 1 µM) was 0.219. It also gave a relative viability ([4]; first compound 0.01 µM) of 0.454, a relative viability ([4]; first compound 0.03162 µM) of 0.365 and a relative viability ([4]; first compound 0.1 µM) of 0.259. The relative viability ([4]; first compound 0.3162 µM) was 0.249 and the relative viability ([4]; first compound 1 µM) was 0.231.

NCI-H1993 gave a relative viability ([1]; first compound 0.01 µM) of 0.545, a relative viability ([1]; first compound 0.03162 µM) of 0.502 and a relative viability ([1]; first compound 0.1 µM) of 0.625. The relative viability ([1]; first compound 0.3162 µM) was 0.353, the relative viability ([1]; first compound 1 µM) was 0.568 and the relative viability ([2]; first compound 0.01 µM) was 0.685. It also gave a relative viability ([2]; first compound 0.03162 µM) of 0.766, a relative viability ([2]; first compound 0.1 µM) of 0.75 and a relative viability ([2]; first compound 0.3162 µM) of 0.668. It also gave a relative viability ([2]; first compound 1 µM) of 0.672, a relative viability ([3]; first compound 0.01 µM) of 0.721 and a relative viability ([3]; first compound 0.03162 µM) of 0.593. The relative viability ([3]; first compound 0.1 µM) was 0.688, the relative viability ([3]; first compound 0.3162 µM) was 0.702 and the relative viability ([3]; first compound 1 µM) was 0.695. It also gave a relative viability ([4]; first compound 0.01 µM) of 0.679, a relative viability ([4]; first compound 0.03162 µM) of 0.629 and a relative viability ([4]; first compound 0.1 µM) of 0.632. It also gave a relative viability ([4]; first compound 0.3162 µM) of 0.623 and a relative viability ([4]; first compound 1 µM) of 0.638.

In the case of NCI-H2009, the relative viability ([1]; first compound 0.01 µM) is reported as 0.72, the relative viability ([1]; first compound 0.03162 µM) is reported as 0.562 and the relative viability ([1]; first compound 0.1 µM) is reported as 0.641. For the same cell line, the relative viability ([1]; first compound 0.3162 µM) was 0.338, the relative viability ([1]; first compound 1 µM) was 0.292 and the relative viability ([2]; first compound 0.01 µM) was 1.15. It also gave a relative viability ([2]; first compound 0.03162 µM) of 0.74, a relative viability ([2]; first compound 0.1 µM) of 0.919 and a relative viability ([2]; first compound 0.3162 µM) of 0.396. For the same cell line, the relative viability ([2]; first compound 1 µM) was 0.316, the relative viability ([3]; first compound 0.01 µM) was 1.17 and the relative viability ([3]; first compound 0.03162 µM) was 1.1. For the same cell line, the relative viability ([3]; first compound 0.1 µM) was 0.891, the relative viability ([3]; first compound 0.3162 µM) was 0.692 and the relative viability ([3]; first compound 1 µM) was 0.374. It also gave a relative viability ([4]; first compound 0.01 µM) of 1.14, a relative viability ([4]; first compound 0.03162 µM) of 1.03 and a relative viability ([4]; first compound 0.1 µM) of 0.931. For the same cell line, the relative viability ([4]; first compound 0.3162 µM) was 0.583 and the relative viability ([4]; first compound 1 µM) was 0.401.

With NCI-H2023 the relative viability ([1]; first compound 0.01 µM) was 0.445, the relative viability ([1]; first compound 0.03162 µM) was 0.347 and the relative viability ([1]; first compound 0.1 µM) was 0.266. The relative viability ([1]; first compound 0.3162 µM) was 0.13, the relative viability ([1]; first compound 1 µM) was 0.116 and the relative viability ([2]; first compound 0.01 µM) was 0.971. The relative viability ([2]; first compound 0.03162 µM) was 0.611, the relative viability ([2]; first compound 0.1 µM) was 0.361 and the relative viability ([2]; first compound 0.3162 µM) was 0.148. The relative viability ([2]; first compound 1 µM) was 0.132, the relative viability ([3]; first compound 0.01 µM) was 0.45 and the relative viability ([3]; first compound 0.03162 µM) was 0.343. It also gave a relative viability ([3]; first compound 0.1 µM) of 0.28, a relative viability ([3]; first compound 0.3162 µM) of 0.17 and a relative viability ([3]; first compound 1 µM) of 0.12. For the same cell line, the relative viability ([4]; first compound 0.01 µM) was 0.439, the relative viability ([4]; first compound 0.03162 µM) was 0.431 and the relative viability ([4]; first compound 0.1 µM) was 0.311. For the same cell line, the relative viability ([4]; first compound 0.3162 µM) was 0.141 and the relative viability ([4]; first compound 1 µM) was 0.141.

In the case of NCI-H2085, the relative viability ([1]; first compound 0.01 µM) is reported as 0.744, the relative viability ([1]; first compound 0.03162 µM) is reported as 0.852 and the relative viability ([1]; first compound 0.1 µM) is reported as 0.551. For the same cell line, the relative viability ([1]; first compound 0.3162 µM) was 0.34, the relative viability ([1]; first compound 1 µM) was 0.355 and the relative viability ([2]; first compound 0.01 µM) was 0.899. It also gave a relative viability ([2]; first compound 0.03162 µM) of 0.514, a relative viability ([2]; first compound 0.1 µM) of 0.384 and a relative viability ([2]; first compound 0.3162 µM) of 0.334. For the same cell line, the relative viability ([2]; first compound 1 µM) was 0.341, the relative viability ([3]; first compound 0.01 µM) was 0.956 and the relative viability ([3]; first compound 0.03162 µM) was 0.744. For the same cell line, the relative viability ([3]; first compound 0.1 µM) was 0.566, the relative viability ([3]; first compound 0.3162 µM) was 0.289 and the relative viability ([3]; first compound 1 µM) was 0.274. The relative viability ([4]; first compound 0.01 µM) was 0.896, the relative viability ([4]; first compound 0.03162 µM) was 0.758 and the relative viability ([4]; first compound 0.1 µM) was 0.575. It also gave a relative viability ([4]; first compound 0.3162 µM) of 0.382 and a relative viability ([4]; first compound 1 µM) of 0.372.

NCI-H2087 showed a relative viability ([1]; first compound 0.01 µM) of 0.77, a relative viability ([1]; first compound 0.03162 µM) of 0.606 and a relative viability ([1]; first compound 0.1 µM) of 0.577. The relative viability ([1]; first compound 0.3162 µM) was 0.412, the relative viability ([1]; first compound 1 µM) was 0.311 and the relative viability ([2]; first compound 0.01 µM) was 1.01. It also gave a relative viability ([2]; first compound 0.03162 µM) of 0.932, a relative viability ([2]; first compound 0.1 µM) of 0.826 and a relative viability ([2]; first compound 0.3162 µM) of 0.581. It also gave a relative viability ([2]; first compound 1 µM) of 0.435, a relative viability ([3]; first compound 0.01 µM) of 0.907 and a relative viability ([3]; first compound 0.03162 µM) of 0.905. The relative viability ([3]; first compound 0.1 µM) was 0.679, the relative viability ([3]; first compound 0.3162 µM) was 0.411 and the relative viability ([3]; first compound 1 µM) was 0.367. The relative viability ([4]; first compound 0.01 µM) was 0.996, the relative viability ([4]; first compound 0.03162 µM) was 0.924 and the relative viability ([4]; first compound 0.1 µM) was 0.809. For the same cell line, the relative viability ([4]; first compound 0.3162 µM) was 0.44 and the relative viability ([4]; first compound 1 µM) was 0.381.

In the case of NCI-H2126, the relative viability ([1]; first compound 0.01 µM) is reported as 0.762, the relative viability ([1]; first compound 0.03162 µM) is reported as 0.743 and the relative viability ([1]; first compound 0.1 µM) is reported as 0.717. For the same cell line, the relative viability ([1]; first compound 0.3162 µM) was 0.528, the relative viability ([1]; first compound 1 µM) was 0.449 and the relative viability ([2]; first compound 0.01 µM) was 0.653. The relative viability ([2]; first compound 0.03162 µM) was 0.679, the relative viability ([2]; first compound 0.1 µM) was 0.615 and the relative viability ([2]; first compound 0.3162 µM) was 0.453. It also gave a relative viability ([2]; first compound 1 µM) of 0.425, a relative viability ([3]; first compound 0.01 µM) of 0.655 and a relative viability ([3]; first compound 0.03162 µM) of 0.572. The relative viability ([3]; first compound 0.1 µM) was 0.504, the relative viability ([3]; first compound 0.3162 µM) was 0.375 and the relative viability ([3]; first compound 1 µM) was 0.385. For the same cell line, the relative viability ([4]; first compound 0.01 µM) was 0.75, the relative viability ([4]; first compound 0.03162 µM) was 0.655 and the relative viability ([4]; first compound 0.1 µM) was 0.601. It also gave a relative viability ([4]; first compound 0.3162 µM) of 0.382 and a relative viability ([4]; first compound 1 µM) of 0.371.

With NCI-H2228 the relative viability ([1]; first compound 0.01 µM) was 0.548, the relative viability ([1]; first compound 0.03162 µM) was 0.446 and the relative viability ([1]; first compound 0.1 µM) was 0.281. For the same cell line, the relative viability ([1]; first compound 0.3162 µM) was 0.176, the relative viability ([1]; first compound 1 µM) was 0.234 and the relative viability ([2]; first compound 0.01 µM) was 1.01. For the same cell line, the relative viability ([2]; first compound 0.03162 µM) was 0.709, the relative viability ([2]; first compound 0.1 µM) was 0.338 and the relative viability ([2]; first compound 0.3162 µM) was 0.219. The relative viability ([2]; first compound 1 µM) was 0.261, the relative viability ([3]; first compound 0.01 µM) was 0.528 and the relative viability ([3]; first compound 0.03162 µM) was 0.284. For the same cell line, the relative viability ([3]; first compound 0.1 µM) was 0.304, the relative viability ([3]; first compound 0.3162 µM) was 0.175 and the relative viability ([3]; first compound 1 µM) was 0.257. For the same cell line, the relative viability ([4]; first compound 0.01 µM) was 0.621, the relative viability ([4]; first compound 0.03162 µM) was 0.297 and the relative viability ([4]; first compound 0.1 µM) was 0.222. It also gave a relative viability ([4]; first compound 0.3162 µM) of 0.19 and a relative viability ([4]; first compound 1 µM) of 0.272.
